Experimental findings from patent publication US5717110A, “UCH15 compounds” (Kyowa Hakko Kogyo Co., Ltd., priority 1995, dated 1998) are described below.

Test [1] has as its system Hela S3 cells (ATCC HTB22). The experiment in a line: Growth inhibition on Hela S3 cells. It counts as cell-based. The note with it: Homo sapiens, 72 hours incubation, Giemsa staining, read-out: IC50 against the cell growth. The method, then: Into each well of a 96-well microtiter plate was pipetted 0.1 ml of a 3.0×10^4 cells/ml suspension of Hela S3 cells (ATCC HTB22) in DEM medium containing 10% of fetal calf serum (manufactured by Nissui, hereinafter referred to as "medium A"). This plate was incubated in a carbon dioxide gas incubator at 37° C. for 20 hours. Then, 0.1 ml of the test compound, which had been appropriately diluted with the medium A, was added to each well followed by incubation in the carbon dioxide gas incubator at 37° C. for additional 72 hours. After having removed the culture supernatant, the residue was washed with physiological saline once and treated with 0.1 ml of methanol for 10 minutes to thereby fix the cells. Next, the cells were stained with 0.1 ml of Giemsa's staining solution [stock solution for Giemsa's staining Merck Art 9204 (manufactured by Merck): physiological saline=1:10] for 5 minutes. After having removed the staining solution, the residue was washed with 0.2 ml of water once. Then, the pigment was extracted with 0.2 ml of 0.1N hydrochloric acid, and the absorbance was measured at 620 nm by the use of a microplate reader. From the result of the measurement, the increased amount of the grown cells was determined. […]

Test [2] deals with Klebsiella pneumoniae ATCC 10031. The experiment in a line: Antibacterial activity, agar dilution method (MIC). It counts as cell-based. The note with it: ATCC10031, medium pH 7, read-out: Minimum Inhibitory Concentration. The method, then:
(§1) These antibacterial activities were determined by the agar dilution method with the use of a medium (pH 7) comprising 3 g/liter of bactotryptone (manufactured by Difco), 3 g/liter of meat extract, 1 g/liter of yeast extract, 1 g/liter of glucose and 16 g/liter of agar.
For orientation: In agar dilution the substance is mixed into plates at graded concentrations.

Test [3] deals with Proteus vulgaris ATCC 6897. The experiment in a line: Antibacterial activity, agar dilution method (MIC). It counts as cell-based. The note with it: ATCC6897, medium pH 7, read-out: Minimum Inhibitory Concentration. On the procedure: as §1
Test [4] relates to Pseudomonas aeruginosa Bin H No. 1. In words: Antibacterial activity, agar dilution method (MIC). It counts as cell-based. The note with it: medium pH 7, read-out: Minimum Inhibitory Concentration. The method, then: as §1
In test [5] the test system is Salmonella choleraesuis ATCC 9992. In words: Antibacterial activity, agar dilution method (MIC). It counts as cell-based. The note with it: Salmonella enterica, pH 7, read-out: Minimum Inhibitory Concentration. On the procedure:
as §1

In test [6] the test system is Enterococcus hirae ATCC 10541. In words: Antibacterial activity, agar dilution method (MIC). It counts as cell-based. The note with it: ATCC10541, medium pH 7, read-out: Minimum Inhibitory Concentration. The method, then: as §1
Test [7] deals with Bacillus subtilis No. 10707. The experiment in a line: Antibacterial activity, agar dilution method (MIC). It counts as cell-based. The note with it: medium pH 7, read-out: Minimum Inhibitory Concentration. On the procedure:
as §1

In the next test the test system is Escherichia coli ATCC 26. In words: Antibacterial activity, agar dilution method (MIC). It counts as cell-based. The note with it: ATCC26, medium pH 7, read-out: Minimum Inhibitory Concentration. The method, then: as §1
Test [8] deals with Staphylococcus aureus ATCC 6538P. The experiment in a line: Antibacterial activity, agar dilution method (MIC). It counts as cell-based. The note with it: ATCC6538P, medium pH 7, read-out: Minimum Inhibitory Concentration. The method, then: as §1
Test [9] concerns Shigella sonnei ATCC 9290. The experiment in a line: Antibacterial activity, agar dilution method (MIC). It counts as cell-based. The note with it: ATCC9290, medium pH 7, read-out: Minimum Inhibitory Concentration. The method, then: as §1
Test [10] relates to Candida albicans ATCC 10231. In words: Antibacterial activity, agar dilution method (MIC). It counts as cell-based. The note with it: ATCC10231, medium pH 7, read-out: Minimum Inhibitory Concentration. The method, then:
as §1

In test [11] the test system is human ovarian cancer strain A2780 tumor. The experiment in a line: Antitumor activity on human ovarian cancer strain A2780. It counts as in vivo. The note with it: 0.38 mg/kg, once into tail vein; nude mice (BALB/C-nu/nu); 14 days after injection; [V/V0]/[C/C0]. The method, then: Nude mice (BALB/C-nu/nu) were used herein, which were grouped into plural groups, each group being comprised of 5 mice. A human ovarian cancer strain A2780 tumor (a piece of 8mm^3) was implanted into the subcutaneous tissue in the abdominal region of each mouse. After the implantation, when the tumor volume in each tumor-carrying mouse reached between 50 and 300 mm^3, a solution of UCH15B in physiological saline was injected once into the tail vein of each mouse (in the test group). Just before the injection of said UCH15B solution, the volume of the tumor (V0) in each mouse was measured. 14 days after the injection thereof, the volume of the tumor (V) therein was measured. Into each mouse in the control group, only physiological saline was injected. Just before the injection of physiological saline, the volume of the tumor (C0) in each mouse was measured. 14 days after the injection thereof, the volume of the tumor (C) therein was measured. The antitumor activity of the test compound, UCH15B was obtained according to the following equation.
Antitumor Activity=[V/V0]/[C/C0 ]
V: tumor volume (mm^3) in test group after the test
V0 : tumor volume (mm^3) in test group before the test
C: tumor volume (mm^3) in control group after the test
C0 : tumor volume (mm^3) in control group before the test

In the next test the test system is sarcoma 180 tumor. The experiment in a line: Antitumor activity on sarcoma 180 tumor. It counts as in vivo, male ddY mice. The note with it: for Mean Tumor Volume: once into tail vein on day 1, measured on 7th day after implantation, ddY mice; for Antitumor Activity (T/C): once into tail vein, day 7, mean tumor volume test/control. On the procedure:
Male ddY mice were used herein, which were grouped into plural groups, each group being comprised of 5 mice. 5×10^6 sarcoma 180 tumor cells were implanted into the subcutaneous tissue in the axillary region of each mouse. On the 1st day after the implantation, a solution of UCH15B dissolved in physiological saline was injected once into the tail vein of each mouse. On the 7th day after the implantation, the mean tumor volume (mm^3) in each mouse was measured. […] Said antitumor activity was calculated according to the following equation.
=[mean tumor volume (mm^3) in mice in test group]/[mean tumor volume (mm^3) in mice in control group (to which was administered physiological saline only)]

Broadly, the pIC50 is the negative decadic logarithm of the IC50, by convention in mol/L.

pIC50: −log10 of the molar value. In brackets after ≈: the same amount, converted by molar mass.

For the compound `N#CC(CC(=O)NC(C=O)C/C=C/CN)NC(=O)c1cc(NC(=O)c2cc(NC(=O)CNC(=N)N)c[nH]2)c[nH]1` (stereo not shown) [UCH15A], the negative logarithm of the IC50 (pIC50) in test [1] is 5.92. The MIC in test [2] was 0.02 µg/mL (≈ 0.0371 µM); in [3] it was 0.16 µg/mL (≈ 0.297 µM); in [4], above 50 µg/mL; in test [5], 0.16 µg/mL (≈ 0.297 µM); in [6] it was 2.6 µg/mL (≈ 4.82 µM); in test [7] it was 0.08 µg/mL (≈ 0.148 µM). The MIC stood at 0.16 µg/mL (≈ 0.297 µM) with Escherichia coli ATCC 26, 2.6 µg/mL (≈ 4.82 µM) in [8], 0.16 µg/mL (≈ 0.297 µM) in [9] and 10.4 µg/mL (≈ 19.3 µM) in test [10].

For the compound `N#CC(CC(=O)NC(C=O)C/C=C/CN)NC(=O)c1cc(NC(=O)c2cc(NC(=O)CNC(N)=NO)c[nH]2)c[nH]1` (stereo not shown) [UCH15B], the negative logarithm of the IC50 (pIC50) in test [1] was 6.00. For the same compound, the “Antitumor Activity (T/C)” value in [11] is listed as 0.27; in the test with sarcoma 180 tumor (0.094 mg/kg) it was 0.65; in the test with sarcoma 180 tumor (0.19 mg/kg) it was 0.60; with sarcoma 180 tumor (0.38 mg/kg), 0.44; in the test on sarcoma 180 tumor (0.75 mg/kg) it was 0.22. Moreover, the MIC is 0.04 µg/mL (≈ 0.072 µM) in test [2]; 0.33 µg/mL (≈ 0.594 µM) in [3]; above 50 µg/mL in test [4]; 0.33 µg/mL (≈ 0.594 µM) in test [5]; 10.4 µg/mL (≈ 18.7 µM) in [6]; 0.33 µg/mL (≈ 0.594 µM) in test [7]. The MIC is 0.08 µg/mL (≈ 0.144 µM) in the test on Escherichia coli ATCC 26, 5.2 µg/mL (≈ 9.36 µM) in test [8], 0.33 µg/mL (≈ 0.594 µM) in [9] and above 41.7 µg/mL in test [10]. Besides, the “Mean Tumor Volume” value in the test with sarcoma 180 tumor (0.094 mg/kg) was 1528 mm^3; with sarcoma 180 tumor (0.19 mg/kg), 1405 mm^3; in the test on sarcoma 180 tumor (0.38 mg/kg) it was 1035 mm^3; in the test with sarcoma 180 tumor (0.75 mg/kg), 522 mm^3.
